According to patent US11572369B2, “Bicyclic pyridine compositions and methods of using the same for cancer therapy” (UNIVERSITY OF SOUTH CAROLINA, priority 2019, dated 2023):

Tests used:
Assay in all cases: KINOMEscan
Type in all cases: binding
Conditions in all cases: 2000 nM
CAMK2A = target: T1, CAMK2A (Homo sapiens, UniProt Q9UQM7)
T1 construct: DNA label (qPCR read-out); purchased KINOMEscan (ScanMAX panel service)

DYRK1A = target: T2, DYRK1A (Homo sapiens, UniProt Q13627)
T2 construct: DNA label (qPCR read-out); purchased KINOMEscan (DiscoveRx) panel

ULK2 = target: T3, ULK2 (Homo sapiens, UniProt Q8IYT8)
T3 construct: DNA label (for qPCR read-out); purchased DiscoveRx (KINOMEscan scanMAX panel)

FLT3-autoinhibited = target: T4, FLT3-autoinhibited (Homo sapiens, UniProt P36888)
T4 construct: purchased KINOMEscan (DiscoveRx)

[1] = target: T5, EGFR(L747-S752del, P753S) (Homo sapiens, UniProt P00533, DEL747-752/P753S)
T5 construct: purchased DiscoveRx (KINOMEscan scanMAX panel)

SRPK3 = target: T6, SRPK3 (Homo sapiens, UniProt Q9UPE1)
T6 construct: purchased KINOMEscan (DiscoveRx)

NEK11 = target: T7, NEK11 (Homo sapiens, UniProt Q8NG66)
T7 construct: DNA label (qPCR read-out); purchased KINOMEscan (ScanMAX panel service)

AURKC = target: T8, AURKC (Homo sapiens, UniProt Q9UQB9)
T8 construct: DNA label (qPCR read-out); purchased KINOMEscan scanMAX panel (DiscoveRx)

LATS2 = target: T9, LATS2 (Homo sapiens, UniProt Q9NRM7)
T9 construct: purchased KINOMEscan (DiscoveRx) panel service

PAK7 = target: T10, PAK7 (Homo sapiens, UniProt Q9P286)
T10 construct: purchased DiscoverX (KINOMEscan service)

LZK = LZK (Homo sapiens, UniProt O43283)
MARK3 = MARK3 (Homo sapiens, UniProt P27448)
LTK = target: T11, LTK (Homo sapiens, UniProt P29376)
T11 construct: purchased KINOMEscan (DiscoveRx) panel service

MAP3K2 = MAP3K2 (Homo sapiens, UniProt Q9Y2U5)
TGFBR2 = target: T12, TGFBR2 (Homo sapiens, UniProt P37173)
T12 construct: DNA label (qPCR read-out); purchased KINOMEscan (DiscoveRx) ScanMAX panel

MST1R = target: T13, MST1R (Homo sapiens, UniProt Q04912)
T13 construct: DNA label (qPCR read-out); purchased KINOMEscan scanMAX panel (DiscoveRx)

PDGFRA = target: T14, PDGFRA (Homo sapiens, UniProt P16234)
T14 construct: DNA label (for qPCR read-out); purchased DiscoveRx (KINOMEscan scanMAX service)

IKK-alpha = target: T15, IKK-alpha (Homo sapiens, UniProt O15111)
T15 construct: DNA label (qPCR read-out); purchased KINOMEscan (DiscoveRx) ScanMAX panel

EPHA1 = target: T16, EPHA1 (Homo sapiens, UniProt P21709)
T16 construct: purchased DiscoveRx (KINOMEscan scanMAX panel)

PRKCD = target: T17, PRKCD (Homo sapiens, UniProt Q05655)
T17 construct: purchased DiscoveRx (KINOMEscan scanMAX panel)

MAPKAPK2 = MAPKAPK2 (Homo sapiens, UniProt P49137)
ACVRL1 = target: T18, ACVRL1 (Homo sapiens, UniProt P37023)
T18 construct: purchased DiscoveRx (KINOMEscan scanMAX panel, service)

[2] = target: T19, RSK2(Kin.Dom.2-C-terminal) (Homo sapiens, UniProt P51812)
T19 construct: RSK2(Kin.Dom.2); purchased DiscoveRx (KINOMEscan scanMAX panel)

MET = target: T20, MET (Homo sapiens, UniProt P08581)
T20 construct: purchased DiscoveRx (KINOMEscan scanMAX panel, service)

[3] = target: ABL1(F317L)-phosphorylated (Homo sapiens, UniProt P00519, F317L)
MST4 = target: T21, MST4 (Homo sapiens, UniProt Q9P289)
T21 construct: DNA label (for qPCR read-out); purchased KINOMEscan scanMAX panel (DiscoveRx)

MAP4K2 = MAP4K2 (Homo sapiens, UniProt Q12851)
YES = target: T22, YES (Homo sapiens, UniProt P07947)
T22 construct: purchased KINOMEscan (DiscoveRx) panel service

PIK3CA(C420R) = target: T23, PIK3CA(C420R) (Homo sapiens, UniProt P42336, C420R)
T23 construct: DNA label; purchased DiscoveRx (KINOMEscan scanMAX panel)

YANK2 = target: T24, YANK2 (Homo sapiens, UniProt Q9NY57)
T24 construct: purchased KINOMEscan (DiscoveRx) panel service

CDKL3 = target: T25, CDKL3 (Homo sapiens, UniProt Q8IVW4)
T25 construct: DNA label (for qPCR read-out); purchased DiscoveRx (KINOMEscan scanMAX service)

PRKR = target: T26, PRKR (Homo sapiens, UniProt P19525)
T26 construct: purchased DiscoveRx (KINOMEscan scanMAX panel)

PAK4 = target: T27, PAK4 (Homo sapiens, UniProt O96013)
T27 construct: purchased DiscoverX (KINOMEscan service)

WEE1 = target: T28, WEE1 (Homo sapiens, UniProt P30291)
T28 construct: purchased KINOMEscan (DiscoveRx) panel service

FES = target: T29, FES (Homo sapiens, UniProt P07332)
T29 construct: purchased DiscoveRx (KINOMEscan scanMAX panel)

PRKCH = target: T30, PRKCH (Homo sapiens, UniProt P24723)
T30 construct: purchased DiscoveRx (KINOMEscan scanMAX panel)

T8 sequence (Q9UQB9 whole entry): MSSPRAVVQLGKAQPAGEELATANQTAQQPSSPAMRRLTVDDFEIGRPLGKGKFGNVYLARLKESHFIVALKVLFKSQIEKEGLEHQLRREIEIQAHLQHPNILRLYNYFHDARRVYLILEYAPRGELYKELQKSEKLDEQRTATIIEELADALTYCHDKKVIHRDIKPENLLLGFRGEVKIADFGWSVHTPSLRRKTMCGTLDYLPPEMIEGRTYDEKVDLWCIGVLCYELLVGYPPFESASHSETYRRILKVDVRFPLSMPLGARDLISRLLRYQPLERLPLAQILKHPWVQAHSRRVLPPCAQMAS
Chain of MAP3K2 (Q9Y2U5 whole entry): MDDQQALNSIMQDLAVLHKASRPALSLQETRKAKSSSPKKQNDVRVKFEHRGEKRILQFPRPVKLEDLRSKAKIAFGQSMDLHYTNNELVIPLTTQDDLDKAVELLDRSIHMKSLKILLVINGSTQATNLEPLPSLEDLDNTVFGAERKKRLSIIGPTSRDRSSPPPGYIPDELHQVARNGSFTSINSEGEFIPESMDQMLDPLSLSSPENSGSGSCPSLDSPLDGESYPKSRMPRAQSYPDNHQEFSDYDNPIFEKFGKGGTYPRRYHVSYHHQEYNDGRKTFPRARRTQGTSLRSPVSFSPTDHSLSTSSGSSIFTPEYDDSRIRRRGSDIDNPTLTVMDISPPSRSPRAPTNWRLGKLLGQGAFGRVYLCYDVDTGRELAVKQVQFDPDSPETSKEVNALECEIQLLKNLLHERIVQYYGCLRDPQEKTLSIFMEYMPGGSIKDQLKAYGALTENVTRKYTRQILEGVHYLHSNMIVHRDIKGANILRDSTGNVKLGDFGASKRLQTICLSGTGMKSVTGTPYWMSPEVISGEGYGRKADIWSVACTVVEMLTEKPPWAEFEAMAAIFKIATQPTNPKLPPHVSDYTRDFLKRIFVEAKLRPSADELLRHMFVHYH
T12 sequence (P37173 23-567): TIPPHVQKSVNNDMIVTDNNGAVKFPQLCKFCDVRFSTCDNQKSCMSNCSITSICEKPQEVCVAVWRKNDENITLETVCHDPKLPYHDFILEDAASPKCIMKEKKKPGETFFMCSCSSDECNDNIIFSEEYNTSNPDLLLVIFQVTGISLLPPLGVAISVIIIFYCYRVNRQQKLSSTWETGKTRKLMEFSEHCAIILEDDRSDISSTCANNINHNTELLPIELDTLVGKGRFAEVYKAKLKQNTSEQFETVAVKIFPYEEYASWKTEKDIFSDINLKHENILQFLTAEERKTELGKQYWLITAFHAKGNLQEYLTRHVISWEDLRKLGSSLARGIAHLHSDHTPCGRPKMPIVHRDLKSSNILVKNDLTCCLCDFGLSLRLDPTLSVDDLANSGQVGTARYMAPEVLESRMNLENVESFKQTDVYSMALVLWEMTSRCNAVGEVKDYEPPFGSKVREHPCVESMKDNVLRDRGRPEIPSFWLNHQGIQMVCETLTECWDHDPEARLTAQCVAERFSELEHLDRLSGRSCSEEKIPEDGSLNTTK
T4 sequence (P36888 564-993 limits assumed): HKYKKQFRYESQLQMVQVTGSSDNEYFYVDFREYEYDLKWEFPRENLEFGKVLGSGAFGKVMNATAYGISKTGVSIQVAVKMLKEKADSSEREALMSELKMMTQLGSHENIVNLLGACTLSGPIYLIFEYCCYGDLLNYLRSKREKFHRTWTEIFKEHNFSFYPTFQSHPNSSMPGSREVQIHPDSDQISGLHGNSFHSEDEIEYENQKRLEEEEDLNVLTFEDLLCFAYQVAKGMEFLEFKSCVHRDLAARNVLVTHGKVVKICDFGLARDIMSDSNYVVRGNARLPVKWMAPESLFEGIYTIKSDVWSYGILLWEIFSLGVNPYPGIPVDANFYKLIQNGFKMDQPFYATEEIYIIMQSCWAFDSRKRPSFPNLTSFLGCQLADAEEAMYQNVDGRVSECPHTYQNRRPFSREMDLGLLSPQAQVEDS
T11 sequence (P29376 17-864): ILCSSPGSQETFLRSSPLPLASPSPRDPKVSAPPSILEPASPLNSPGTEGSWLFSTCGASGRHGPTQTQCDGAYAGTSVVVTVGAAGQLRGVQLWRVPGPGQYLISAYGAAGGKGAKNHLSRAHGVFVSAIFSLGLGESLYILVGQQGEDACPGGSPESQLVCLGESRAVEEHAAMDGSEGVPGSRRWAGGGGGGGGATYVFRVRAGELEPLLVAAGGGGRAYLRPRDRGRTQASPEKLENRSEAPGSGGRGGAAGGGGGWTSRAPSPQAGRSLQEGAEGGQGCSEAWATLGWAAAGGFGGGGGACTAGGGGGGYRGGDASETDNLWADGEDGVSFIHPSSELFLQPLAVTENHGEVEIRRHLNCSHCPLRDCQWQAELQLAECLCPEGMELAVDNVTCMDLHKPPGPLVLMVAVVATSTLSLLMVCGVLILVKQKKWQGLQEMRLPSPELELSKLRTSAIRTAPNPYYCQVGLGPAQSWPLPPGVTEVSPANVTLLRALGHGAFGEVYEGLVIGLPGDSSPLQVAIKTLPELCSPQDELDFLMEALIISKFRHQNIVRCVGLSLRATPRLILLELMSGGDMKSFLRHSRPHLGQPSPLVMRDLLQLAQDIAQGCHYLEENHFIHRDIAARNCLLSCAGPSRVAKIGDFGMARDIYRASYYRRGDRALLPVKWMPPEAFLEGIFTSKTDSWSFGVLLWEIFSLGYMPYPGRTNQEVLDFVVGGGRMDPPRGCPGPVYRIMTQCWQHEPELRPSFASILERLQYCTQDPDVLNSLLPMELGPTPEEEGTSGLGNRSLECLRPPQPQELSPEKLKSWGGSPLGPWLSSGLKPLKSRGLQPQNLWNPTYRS
T19 sequence (P51812 422-679 limits assumed): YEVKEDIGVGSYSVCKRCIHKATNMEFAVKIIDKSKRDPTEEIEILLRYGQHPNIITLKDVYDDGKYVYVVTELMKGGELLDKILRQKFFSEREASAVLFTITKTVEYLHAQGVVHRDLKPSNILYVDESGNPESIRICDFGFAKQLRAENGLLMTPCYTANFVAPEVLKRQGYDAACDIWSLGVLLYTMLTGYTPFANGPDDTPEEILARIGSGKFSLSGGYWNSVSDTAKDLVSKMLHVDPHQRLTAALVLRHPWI
T27 sequence (O96013 whole entry): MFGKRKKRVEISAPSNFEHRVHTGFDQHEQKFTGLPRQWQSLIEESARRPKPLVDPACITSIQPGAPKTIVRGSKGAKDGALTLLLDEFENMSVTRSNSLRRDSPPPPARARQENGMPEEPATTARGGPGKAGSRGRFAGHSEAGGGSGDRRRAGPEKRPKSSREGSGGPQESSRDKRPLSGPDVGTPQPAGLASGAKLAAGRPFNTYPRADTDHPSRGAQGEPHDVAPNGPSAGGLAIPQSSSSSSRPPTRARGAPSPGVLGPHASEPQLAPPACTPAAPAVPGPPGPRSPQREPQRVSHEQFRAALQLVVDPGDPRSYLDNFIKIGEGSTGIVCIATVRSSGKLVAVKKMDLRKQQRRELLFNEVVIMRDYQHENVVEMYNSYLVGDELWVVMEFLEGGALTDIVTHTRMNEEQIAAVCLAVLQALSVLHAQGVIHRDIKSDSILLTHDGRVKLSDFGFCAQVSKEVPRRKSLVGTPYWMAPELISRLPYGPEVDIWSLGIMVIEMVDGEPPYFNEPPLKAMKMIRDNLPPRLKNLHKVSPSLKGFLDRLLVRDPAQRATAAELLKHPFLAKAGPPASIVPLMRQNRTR
T14 sequence (P16234 24-1089): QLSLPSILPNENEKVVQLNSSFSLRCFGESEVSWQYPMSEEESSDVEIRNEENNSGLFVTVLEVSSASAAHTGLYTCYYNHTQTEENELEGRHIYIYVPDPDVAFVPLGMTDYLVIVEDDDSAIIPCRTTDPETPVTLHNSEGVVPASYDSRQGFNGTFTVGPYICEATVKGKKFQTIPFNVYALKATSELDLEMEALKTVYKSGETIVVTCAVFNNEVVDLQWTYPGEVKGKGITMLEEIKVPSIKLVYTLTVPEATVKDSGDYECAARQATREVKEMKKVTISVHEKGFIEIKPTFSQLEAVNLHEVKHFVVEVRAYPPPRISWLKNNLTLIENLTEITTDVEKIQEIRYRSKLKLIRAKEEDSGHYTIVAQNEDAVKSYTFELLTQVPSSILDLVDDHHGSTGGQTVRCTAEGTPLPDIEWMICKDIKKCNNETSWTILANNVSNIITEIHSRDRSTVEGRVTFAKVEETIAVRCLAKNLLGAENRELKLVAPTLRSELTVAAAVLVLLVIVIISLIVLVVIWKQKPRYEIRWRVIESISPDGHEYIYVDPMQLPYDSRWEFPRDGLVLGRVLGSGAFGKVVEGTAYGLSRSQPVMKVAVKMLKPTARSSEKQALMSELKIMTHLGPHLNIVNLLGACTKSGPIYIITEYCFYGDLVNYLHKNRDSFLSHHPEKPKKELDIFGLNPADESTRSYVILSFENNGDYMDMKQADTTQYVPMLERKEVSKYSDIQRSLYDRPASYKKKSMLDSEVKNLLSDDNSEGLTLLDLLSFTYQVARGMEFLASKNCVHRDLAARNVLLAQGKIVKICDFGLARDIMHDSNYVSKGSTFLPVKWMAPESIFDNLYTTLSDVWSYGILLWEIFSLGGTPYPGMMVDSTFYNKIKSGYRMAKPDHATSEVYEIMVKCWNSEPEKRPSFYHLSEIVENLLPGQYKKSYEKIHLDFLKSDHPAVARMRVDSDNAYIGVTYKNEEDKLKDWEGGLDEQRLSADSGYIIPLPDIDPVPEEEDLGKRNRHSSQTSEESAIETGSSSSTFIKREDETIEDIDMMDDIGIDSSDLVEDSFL

| Structure (SMILES) | % Ctrl (CAMK2A) | % Ctrl (DYRK1A) | % Ctrl (ULK2) | % Ctrl (FLT3-autoinhibited) | % Ctrl [1] | % Ctrl (SRPK3) | % Ctrl (NEK11) | % Ctrl (AURKC) | % Ctrl (LATS2) | % Ctrl (PAK7) | % Ctrl (LZK) | % Ctrl (MARK3) | % Ctrl (LTK) | % Ctrl (MAP3K2) | % Ctrl (TGFBR2) | % Ctrl (MST1R) | % Ctrl (PDGFRA) | % Ctrl (IKK-alpha) | % Ctrl (EPHA1) | % Ctrl (PRKCD) | further results |
| --- | --- | --- | --- | --- | --- | --- | --- | --- | --- | --- | --- | --- | --- | --- | --- | --- | --- | --- | --- | --- | --- |
| [2H]C([2H])([2H])N(C(=O)c1ccc(N2CCCN(c3ccnc4sc(C(N)=O)c(N)c34)CC2)cc1)C([2H])([2H])[2H] [15u_D6, 3-amino-4-(4-(4-(bis(methyl-d3)carbamoyl)phenyl)-1,4-diazepan-1-yl)thieno[2,3-b]pyridine-2-carboxamide] | 100 % Ctrl | 22 % Ctrl | 83 % Ctrl | 77 % Ctrl | 100 % Ctrl | 96 % Ctrl | 86 % Ctrl | 100 % Ctrl | 31 % Ctrl | 80 % Ctrl | 87 % Ctrl | 100 % Ctrl | 77 % Ctrl | 86 % Ctrl | 100 % Ctrl | 99 % Ctrl | 65 % Ctrl | 90 % Ctrl | 95 % Ctrl | 92 % Ctrl | % Ctrl (MAPKAPK2): 99 % Ctrl; % Ctrl (ACVRL1): 100 % Ctrl; % Ctrl [2]: 92 % Ctrl; % Ctrl (MET): 92 % Ctrl; % Ctrl [3]: 82 % Ctrl; % Ctrl (MST4): 89 % Ctrl; % Ctrl (MAP4K2): 66 % Ctrl; % Ctrl (YES): 100 % Ctrl; % Ctrl (PIK3CA(C420R)): 86 % Ctrl; % Ctrl (YANK2): 84 % Ctrl; % Ctrl (CDKL3): 100 % Ctrl; % Ctrl (PRKR): 100 % Ctrl; % Ctrl (PAK4): 100 % Ctrl; % Ctrl (WEE1): 88 % Ctrl; % Ctrl (FES): 100 % Ctrl; % Ctrl (PRKCH): 96 % Ctrl |
| CN(C)C(=O)c1ccc(N2CCCN(c3ccnc4sc(C(N)=O)c(N)c34)CC2)cc1 [15u, 3-amino-4-(4-(4-(dimethylcarbamoyl)phenyl)-1,4-diazepan-1-yl)thieno[2,3-b]pyridine-2-carboxamide] | 90 % Ctrl | 50 % Ctrl | 90 % Ctrl | 72 % Ctrl | 99 % Ctrl | 65 % Ctrl | 90 % Ctrl | 100 % Ctrl | 94 % Ctrl | 100 % Ctrl | 100 % Ctrl | 98 % Ctrl | 90 % Ctrl | 98 % Ctrl | 100 % Ctrl | 97 % Ctrl | 70 % Ctrl | 77 % Ctrl | 92 % Ctrl | 100 % Ctrl | % Ctrl (MAPKAPK2): 91 % Ctrl; % Ctrl (ACVRL1): 99 % Ctrl; % Ctrl [2]: 94 % Ctrl; % Ctrl (MET): 99 % Ctrl; % Ctrl [3]: 97 % Ctrl; % Ctrl (MST4): 95 % Ctrl; % Ctrl (MAP4K2): 84 % Ctrl; % Ctrl (YES): 99 % Ctrl; % Ctrl (PIK3CA(C420R)): 100 % Ctrl; % Ctrl (YANK2): 89 % Ctrl; % Ctrl (CDKL3): 100 % Ctrl; % Ctrl (PRKR): 100 % Ctrl; % Ctrl (PAK4): 87 % Ctrl; % Ctrl (WEE1): 100 % Ctrl; % Ctrl (FES): 100 % Ctrl; % Ctrl (PRKCH): 80 % Ctrl |
